# Data from US6376497B1, “Antifungal azole derivatives having a fluorinated vinyl group and process for preparing same” (Korea Research Institute of Chemical Technology, priority 1999, dated 2002).
# Columns and labels:
# Assay in all cases: In vitro antifungal activity, microbroth dilution MIC
# Type in all cases: cell-based
# [1] = system: Trichophyton mentagrophytes B. 32663; settings: 4 to 48 hours; for Minimal inhibitory concentration(MIC), T. mentagrophytes B. 32663: RPMI-1640, 35° C., no growth observed; for Minimal inhibitory concentration (MIC): T. mentagrophytes B. 32663, RPMI-1640, 35° C.
# Method in brief: (§1)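 Broth microdilution adapted from NCCLS M27, in RPMI-1640 with 0.165 M MOPS, pH 7.0. Yeast or mould inoculum at 2×10^3 CFU/ml was mixed 1:1 with DMSO-derived compound solutions (200 to 0.10 μg/ml before mixing) and incubated at 35 °C for 4 to 48 h. MIC was the concentration showing no growth.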
# [2] = system: Aspergillus niger A. 16404; settings: 4 to 48 hours; for Minimal inhibitory concentration(MIC), A. niger A. 16404: RPMI-1640, 35° C., no growth observed; for Minimal inhibitory concentration (MIC): A. niger A. 16404, RPMI-1640, 35° C.
# Method in brief: as §1
# [3] = system: Trichophyton mentagrophytes A. 9129; settings: 4 to 48 hours; for Minimal inhibitory concentration(MIC), T. mentagrophytes A. 9129: RPMI-1640, 35° C., no growth observed; for Minimal inhibitory concentration (MIC): T. mentagrophytes A. 9129, RPMI-1640, 35° C.
# Method in brief: as §1
# [4] = system: Candida pseudotropicalis K. 11658; settings: 4 to 48 hours; for Minimal inhibitory concentration(MIC), C. pseudotropicalis K. 11658: RPMI-1640, 35° C., no growth observed; for Minimal inhibitory concentration (MIC): C. pseudotropicalis K. 11658, RPMI-1640, 35° C.
# Method in brief: as §1
# [5] = system: Candida parapsitosis A. 7330; settings: 4 to 48 hours; for Minimal inhibitory concentration(MIC), C. parapsitosis A. 7330: RPMI-1640, 35° C., no growth observed; for Minimal inhibitory concentration (MIC): C. parapsitosis A. 7330, RPMI-1640, 35° C.
# Method in brief: as §1
# [6] = system: Cryptococcus neoformans B. 42419; settings: 4 to 48 hours; for Minimal inhibitory concentration(MIC), Cry. neoformans B. 42419: RPMI-1640, 35° C., no growth observed; for Minimal inhibitory concentration (MIC): Cry. neoformans B. 42419, RPMI-1640, 35° C.
# Method in brief: as §1
# [7] = system: Candida albicans A. 10231; settings: 4 to 48 hours; for Minimal inhibitory concentration(MIC), C. albicans A. 10231: RPMI-1640, 35° C., no growth observed; for Minimal inhibitory concentration (MIC): C. albicans A. 10231, RPMI-1640, 35° C.
# Method in brief: as §1
# [8] = system: Torulopsis glabrata B. 16205; settings: 4 to 48 hours; for Minimal inhibitory concentration(MIC), T. glabrata B. 16205: RPMI-1640, 35° C., no growth observed; for Minimal inhibitory concentration (MIC): T. glabrata B. 16205, RPMI-1640, 35° C.
# Method in brief: as §1
# [9] = system: Aspergillus furnigatus B. 19119; settings: 4 to 48 hours; for Minimal inhibitory concentration(MIC), A furnigatus B. 19119: RPMI-1640, 35° C., no growth observed; for Minimal inhibitory concentration (MIC): A furnigatus B. 19119, RPMI-1640, 35° C.
# Method in brief: as §1
# [10] = system: Cryptococcus neoformans A. 34144; settings: 4 to 48 hours; for Minimal inhibitory concentration(MIC), Cry. neoformans A. 34144: RPMI-1640, 35° C., no growth observed; for Minimal inhibitory concentration (MIC): Cry. neoformans A. 34144, RPMI-1640, 35° C.
# Method in brief: as §1
# [11] = system: Candida krusei K. 11655; settings: 4 to 48 hours; for Minimal inhibitory concentration(MIC), C. krusei K. 11655: RPMI-1640, 35° C., no growth observed; for Minimal inhibitory concentration (MIC): C. krusei K. 11655, RPMI-1640, 35° C.
# Method in brief: as §1
# [12] = system: Candida albicans IFO. 1385; settings: 4 to 48 hours; for Minimal inhibitory concentration(MIC), C. albicans IFO. 1385: RPMI-1640, 35° C., no growth observed; for Minimal inhibitory concentration (MIC): C. albicans IFO. 1385, RPMI-1640, 35° C.
# Method in brief: as §1
# [13] = system: Candida tropicalis A. 13803; settings: 4 to 48 hours; for Minimal inhibitory concentration(MIC), C. tropicalis A. 13803: RPMI-1640, 35° C., no growth observed; for Minimal inhibitory concentration (MIC): C. tropicalis A. 13803, RPMI-1640, 35° C.
# Method in brief: as §1
# [14] = system: Cryptococcus neoformans IFM. 40092; settings: 4 to 48 hours; for Minimal inhibitory concentration(MIC), Cry. neoformans IFM. 40092: RPMI-1640, 35° C., no growth observed; for Minimal inhibitory concentration (MIC): Cry. neoformans IFM. 40092, RPMI-1640, 35° C.
# Method in brief: as §1
# [15] = system: Candida albicans C1-2; settings: 4 to 48 hours; for Minimal inhibitory concentration(MIC), C. albicans C1-2: RPMI-1640, 35° C., no growth observed; for Minimal inhibitory concentration (MIC): C. albicans C1-2, RPMI-1640, 35° C.
# Method in brief: as §1
"Minimal inhibitory concentration(MIC), T. mentagrophytes B. 32663 [1] [µg/mL]","Minimal inhibitory concentration(MIC), A. niger A. 16404 [2] [µg/mL]","Minimal inhibitory concentration(MIC), T. mentagrophytes A. 9129 [3] [µg/mL]","Minimal inhibitory concentration(MIC), C. pseudotropicalis K. 11658 [4] [µg/mL]","Minimal inhibitory concentration(MIC), C. parapsitosis A. 7330 [5] [µg/mL]","Minimal inhibitory concentration(MIC), Cry. neoformans B. 42419 [6] [µg/mL]","Minimal inhibitory concentration(MIC), C. albicans A. 10231 [7] [µg/mL]","Minimal inhibitory concentration(MIC), T. glabrata B. 16205 [8] [µg/mL]","Minimal inhibitory concentration(MIC), A furnigatus B. 19119 [9] [µg/mL]","Minimal inhibitory concentration(MIC), Cry. neoformans A. 34144 [10] [µg/mL]","Minimal inhibitory concentration(MIC), C. krusei K. 11655 [11] [µg/mL]","Minimal inhibitory concentration(MIC), C. albicans IFO. 1385 [12] [µg/mL]","Minimal inhibitory concentration(MIC), C. tropicalis A. 13803 [13] [µg/mL]","Minimal inhibitory concentration(MIC), Cry. neoformans IFM. 40092 [14] [µg/mL]","Minimal inhibitory concentration(MIC), C. albicans C1-2 [15] [µg/mL]",Minimal inhibitory concentration (MIC) [1] [µg/mL],Minimal inhibitory concentration (MIC) [2] [µg/mL],Minimal inhibitory concentration (MIC) [3] [µg/mL],Minimal inhibitory concentration (MIC) [4] [µg/mL],Minimal inhibitory concentration (MIC) [5] [µg/mL],SMILES,further results
12.5,>100,25.0,>100,>100,3.13,>100,100,>100,3.13,>100,3.13,>100,0.78,>100,–,–,–,–,–,FC(Oc1ccc(OCC2COC(Cn3ccnc3)(c3ccc(Cl)cc3Cl)O2)cc1)=C(c1ccc(C(F)(F)F)cc1)C(F)(F)F (mixture of isomers) [Ex. 97],–
1.56,>100,6.25,1.56,1.56,0.78,>100,>100,>100,0.78,1.56,1.56,>100,0.20,>100,–,–,–,–,–,FC(=C(c1ccc2c(c1)OCO2)C(F)(F)F)N1CCN(c2ccc(OCC3COC(Cn4ccnc4)(c4ccc(Cl)cc4Cl)O3)cc2)CC1 (mixture of isomers) [Ex. 132],–
–,–,–,–,–,–,–,–,–,–,–,–,–,–,–,12.5,100,25.0,100,>100,FC(OCC1COC(Cn2ccnc2)(c2ccc(Cl)cc2Cl)O1)=C(c1ccc(C(F)(F)F)cc1)C(F)(F)F (stereo not drawn) [Ex. 25],Minimal inhibitory concentration (MIC) [6]: 1.56 µg/mL; Minimal inhibitory concentration (MIC) [7]: 6.25 µg/mL; Minimal inhibitory concentration (MIC) [8]: 25.0 µg/mL; Minimal inhibitory concentration (MIC) [9]: 100 µg/mL; Minimal inhibitory concentration (MIC) [10]: 1.56 µg/mL; Minimal inhibitory concentration (MIC) [11]: 100 µg/mL; Minimal inhibitory concentration (MIC) [12]: 1.56 µg/mL; Minimal inhibitory concentration (MIC) [13]: 50.0 µg/mL; Minimal inhibitory concentration (MIC) [14]: 0.78 µg/mL; Minimal inhibitory concentration (MIC) [15]: 12.5 µg/mL
–,–,–,–,–,–,–,–,–,–,–,–,–,–,–,0.78,6.25,1.56,50.0,>100,FC(OCC1COC(Cn2ccnc2)(c2ccc(F)cc2F)O1)=C(c1ccccc1)C(F)(F)F (mixture of isomers) [Ex. 52],Minimal inhibitory concentration (MIC) [6]: 0.78 µg/mL; Minimal inhibitory concentration (MIC) [7]: 12.5 µg/mL; Minimal inhibitory concentration (MIC) [8]: 3.13 µg/mL; Minimal inhibitory concentration (MIC) [9]: 1.56 µg/mL; Minimal inhibitory concentration (MIC) [10]: 0.78 µg/mL; Minimal inhibitory concentration (MIC) [11]: 100 µg/mL; Minimal inhibitory concentration (MIC) [12]: 0.39 µg/mL; Minimal inhibitory concentration (MIC) [13]: 50.0 µg/mL; Minimal inhibitory concentration (MIC) [14]: ≦0.10 μg/ml; Minimal inhibitory concentration (MIC) [15]: 12.5 µg/mL
